Test results taken from article PMC4785407, “Reduction Impairs the Antibacterial Activity but Benefits the LPS Neutralization Ability of Human Enteric Defensin 5” (Scientific Reports, 2016).
Ends that are not written are not given here.

Experiments:
[1] = flexible N-terminus; cited from earlier work
Source text: Changes in function follow changes in structure.

bacteria = conditions: cited from earlier work
Source text: Oxidized human defensin 5 (HD5OX), a 32-residue α defensin, is stored in the secretory granules of Paneth cells in the small intestine as a propeptide (E20-R94) and is processed by anionic and/or meso isoforms of trypsin during secretion or shortly thereafter at a cleavage site between R62 and A63[6]. […] We have previously prepared bioactive HD5OX using Pichia pastoris and design ... || HD5OX is an endogenous bactericidal agent.

[2] = test system: LPS-binding protein (LBP); LPS-stimulated macrophages; conditions: cited from earlier work
Source text: Human defensins are also noted for their immunoregulatory properties. […] Additionally, some defensins are able to suppress the pro-inflammatory effect of bacterial lipopolysaccharide (LPS). For example, H ...

[3] = test system: interaction between LPS and LBP (mouse LBP); test: LPS-binding protein (LBP) block assay; assay type: biochemical; conditions: 200 ng/mL, positive control; mouse LBP 60 ng/mL, biotinylated LPS 50 ng/mL
Procedure: The effects of peptides on the interaction between LPS and low concentrations of LBP were determined as previously described. Briefly, the plates of a LBP ELISA kit (Boster EK1274) were blocked by the incubation of 1% BSA prepared in 10 mM sodium phosphate buffer (pH 7.4) at 37 °C for 1 h, which were subsequently washed with 0.1% Tween-20. Aliquots of 100 μL of mouse LBP (Sigma SRP6034, 60 ng/mL) were added and incubated at 37 °C for 1.5 h. Peptides were prepared in sterile water, with concentrations of 12.5, 25, and 50 μg/mL, respectively. Biotinylated LPS (50 ng/mL) was added in the absence or presence of peptides (pre-incubated at 37 °C for 30 min). Polymyxin B (200 ng/mL) was used as a positive control. The binding of LPS to LBP was determined using a chromogenic reaction between HRP-conjugated streptavidin (Boster BA1088) and TMB (Sigma 860336). Data were processed by subtracting the absorbance in the absence of LPS. Statistical significance was determined by the Student−Newman−Keuls multiple comparisons test.
Figure 5. The efficiencies of peptides in blocking the interaction between LPS and LBP. A LBP ELISA plate was blocked by 1% BSA and subsequently washed with 0.1% Tween-20. Aliquots of 100 μL of the mouse LBP (60 ng/mL) was added and incubated at 37°C for 1.5 h. Peptides were prepared in sterile water, with concentrations of 12.5, 25, and 50 μg/mL, respectively. Biotinylated LPS (50 ng/mL) was then added in the absence or presence of peptides (pre-incubated at 37°C for 30 min). Data were processed by subtracting the absorbance in the absence of biotinylated LPS. Statistical significance was determined by the Student−Newman−Keuls multiple comparisons test. n.s, not significant; **, p < 0.01, relative to the value of the group solely treated with LPS.

## HBD3: human β defensin cited from the literature (GIINTLQKYYCRVRGGRCAVLSCLPKEEQIGKCSTRGRKCCRRKK; ends and bridges not checked; cysteine pairing not given here; UniProt P81534 23-67, looked up)
[1]
  conformation in SDS micelles: adopts a α-helical-containing structure
bacteria
  function without disulfide bonds: can function well without disulfide bonds

## HNP1: human neutrophil peptide cited from the literature
[2]
  interaction between LPS and low concentrations of LBP; TNF-α production: can block the interaction between LPS and low concentrations of LPS-binding protein
bacteria
  antibacterial property on loss of disulfide bonds: loss of disulfide bonds attenuates the antibacterial property

## Polymyxin B [PB, reference compound]
[3]
  effect on the interaction between LPS and LBP: significantly inhibited the LPS-LBP interaction

## human β defensin (HBD) 1 (DHYNCVSSGGQCLYSACPIFTKIQGTCYRGKAKCCK; ends and bridges not checked; cysteine pairing not given here; UniProt P60022 33-68, looked up) [HBD1, ubiquitously expressed peptide in human epithelia]
[2]
  interaction between LPS and low concentrations of LBP; TNF-α production: can block the interaction between LPS and low concentrations of LPS-binding protein
bacteria; disulfide reduction
  antibacterial activity upon reduction: enhanced upon reduction
